US11504349B2, “Composition for preventing or treating TNF-related diseases, containing novel derivative as active ingredient, and method for inhibiting TNF activity by using same” (ILAB, priority 2017, dated 2022)

Experiments:
NF-kB p65 = test: Western blot: TNF-induced NF-kB p65 nuclear migration in LM cells; format: cell-based, mouse; conditions: TNF 50 ng/ml, 1 hour, compound at about 25 μM
Method: First, LM cells was treated with TNF alone (50 ng/ml) or a mixture of TNF and the compound of Example 61 (0, 10, 25, 50 μM) for 1 hour, and then the cells were washed and prepared. After the cytoplasmic fraction and nuclear fraction were separated/obtained using NE-PER nuclear and cytoplasmic extraction reagents (Thermo Scientific, cat #78833), NF-kB p65 protein was detected by SDS-PAGE and Western Blot. Anti-NF-κB p65 rabbit monoclonal antibody (Cell Signaling Technology, cat #D14E12) was used as a primary antibody, and goat anti-rabbit HRP-conjugated antibody (Invitrogen, cat #656120) was used as a secondary antibody. As a Western Blot control protein (housekeeping protein), GAPDH was used in the cytoplasmic fraction, and Lamin B1 was used in the nuclear fraction. Anti-GAPDH mouse monoclonal antibody (GenScript, cat #A01622) was used as a primary antibody of GAPDH, and goat anti-mouse HRP-conjugated antibody (BETHYLlaboratories, cat #A90-116P) was used as a secondary antibody. Anti-Lamin-B1 rabbit monoclonal antibody (Cell Signaling Technology, cat #12586S) was used as a primary antibody of Lamin B1, and anti-rabbit HRP-conjugated antibody (Invitrogen, cat #656120) was used as a secondary antibody.

TNF = TNF (Homo sapiens, UniProt P01375); test: TNF-neutralization bioassay: TNF-induced cell death of LM cells (MTT); format: cell-based
Sequence of TNF (P01375 77-233 limits assumed): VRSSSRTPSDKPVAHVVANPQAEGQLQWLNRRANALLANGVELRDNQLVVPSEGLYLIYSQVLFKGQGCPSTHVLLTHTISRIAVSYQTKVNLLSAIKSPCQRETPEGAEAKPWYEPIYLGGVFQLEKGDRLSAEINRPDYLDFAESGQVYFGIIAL
Method in brief: (§1)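 Mouse fibroblast LM cells (5×10^4 cells/well) treated with TNF (20 ng/ml), compound and actinomycin D sensitizer for 24 h. Viability by MTT (4 h), absorbance at 570 nm. % TNF inhibition from OD relative to TNF-treated and untreated groups; IC50 and CC50 by Prism.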

TNF-overexpressing mice = test: Therapeutic effect on rheumatoid arthritis, TNF-overexpressing mouse model; format: in vivo
Method: First, until the mean level of arthritis of TNF-overexpres sing mice reached 8, the mice were raised. As such, etanercept (4.5 mpk), adalimumab (1.2 mpk), the compound of Example 61 (25 mpk, 50 mpk, or 100 mpk) were orally administered to the mice with rheumatoid arthritis from Week 15 to Week 23, three times a week, and the pathology was measured and recorded from Week 7 to Week 23 (N=5 to 6/group, *P<0.01, **P<0.005, ***P<0.001).

[1] = Cytotoxicity (CC50) in LM cells, MTT assay; format: cell-based; conditions: mouse, LM cells (mouse fibroblasts); 50% cytotoxic concentration
Method in brief: as §1

With O=C(O)c1c(-c2cc(F)ccc2F)oc2cc(Cl)ccc2c1=O [Example 61, 2-(2,5-difluorophenyl)-3-carboxy-7-chloro-(4H)-4-benzopyranone] the “migration of NF-kB from the cytoplasm to the nucleus activated by TNF” value (NF-kB p65) was “almost completely inhibited”, the inhibition at 50 µM (TNF; compound 50 μM, TNF 20 ng/ml, actinomycin D, LM cells, 24 hours) was 95.7% and the IC50 (TNF; inhibition of TNF-induced LM cell death) was 1800 nM. The “therapeutic effect on rheumatoid arthritis (pathology score)” value (TNF-overexpressing mice; 25, 50 and 100 mpk PO, three times a week, Week 15 to 23, vs negative control) was “remarkable therapeutic effect”, the “effect in comparison with adalimumab and etanercept” value (TNF-overexpressing mice; 50 and 100 mpk PO, adalimumab 1.2 mpk, etanercept 4.5 mpk) was “non-inferior effect” and the CC50 at 24 h [1] was > 50000 nM.
